| SMILES | melting point [°C] |
| --- | --- |
| O=c1[nH]c2ccc(Cl)cc2c2cc(CO)nn12 | 316 to 318 |
| Cc1c(C(F)(F)F)nn(C)c1O | 148 to 151 |
| O=[N+]([O-])c1cc[nH]c1-c1ccccc1 | 190 to 192 |
| Nc1nccc2[nH]cnc12 | 260 to 262 |
| O=C1C=CC(=Cc2cccs2)O1 | 100 to 102 |
| COc1cc2c(cc1Br)[C@@H](O)[C@H](Br)C(C)(C)O2 (relative stereo) | 58 to 59 |
| O=C(Nc1ccc(F)c(Cl)c1F)C(F)(F)F | 73 to 74 |
| COc1cc2c(=O)n(Cc3ccc([N+](=O)[O-])cc3)c3cc(OC)c(OC)cc3c2cc1OC | 199 to 200 |
| O=CN1CC2CCCc3cccc1c32 (centres undefined) | 93 to 94 |
| O=C(O)Cn1c(C(=O)O)cc(=O)c2c1C(=O)C(O)=C2 | > 270 |
| OCC1OC(n2ccnn2)C(O)C1O (centres undefined) | 123 to 125 |
| NC(=O)c1cn(Cc2ccccc2F)nn1 | 220 to 222 |
| CCNC(=O)ON=C(C)C1=CCCN(C)C1 | 74 to 78 |
| CCN(CC)C(=O)C(C)(C)C(=O)O | 110 to 112 |
| N#CCc1ccc2oc([N+](=O)[O-])c(-c3ccccc3)c2c1 | 166 to 168 |
| CCOC(C)O[C@H]1C(=O)N[C@H]1c1ccccc1 (some centres undefined) | 78 to 80 |
| Cc1cccc2c1N(CC(=O)N1CC3CCC(CC3)C1)C(=O)C(NC(=O)Nc1cccc(C=NO)c1)N=C2c1ccccc1F (centres undefined) | 196 to 199 |
| Nc1c2c(nc3ccccc13)-c1ccccc1SC2 | 211 to 212 |
| CN(C)c1nc(Cl)nc(Cl)n1 | 123 to 124 |
| Cc1ccc(-n2nc(C)c(NC(N)=S)c2C)cc1 | 240 to 241 |
| O=C(NCCCCCCCCNC(=O)c1ccc2c(c1)OCO2)c1ccc2c(c1)OCO2 | 179 to 180 |
| O=C1Nc2cccnc2N(CCCCCCN2CCCCC2)c2ccccc21 | 131 to 132 |
| N#Cc1cnc2sc(-c3cccc(C=O)c3)cc2c1Cl | > 250 |
| CCc1cc(CC)c(NC(=S)NC2CCCCC2)c(CC)c1 | 97 to 99 |
| O=C(Nc1ccc(OCC2CCCO2)c([N+](=O)[O-])c1)OCCCl (centres undefined) | 84 to 86 |

| SMILES | melting point [°C] |
| --- | --- |
| CCCC(=O)n1nc2c(c1NC)c(=O)n(CCC)c(=O)n2Cc1cccc(Cl)c1 | 152 to 153 |
| Cc1nc2n(c(=O)c1CCBr)CCCS2 | 215 |
| NS(=O)(=O)c1cc(C(=O)NN(c2ccccc2)C2CCCCC2)ccc1Cl | 216 to 217 |
| O=C(OCc1cc(-c2ccccc2)c(=O)n2c1-c1sccc1CC2)N1CCOCC1 | 163 to 164 |
| CN(C)c1nsc2nc3ccccc3n12 | 102 to 104 |
| CN(C=O)c1ccc(F)c(Cl)c1 | 47 to 48 |
| COc1cc(OC)nc(Oc2ccccc2C(=O)ON(C)C)n1 | 71 to 72.5 |
| Cc1cc2c(cc1N1CCCCCC1)OC(=O)C2C (centres undefined) | 58 to 60 |
| CC(C)(C(=O)c1ccc(S)cc1)N1CCOCC1 | 68 to 69 |
| CC(=O)c1ccc2c(c1)CCC1(CC2)CC1 | 56 to 58 |
| CC(C)(C)OC(=O)NC(CC(=O)O)c1ccc(Cl)c(Cl)c1 (centres undefined) | 128 |
| Nc1cc(=O)n(Cc2c(Cl)cccc2Cl)[nH]1 | 225 |
| CC(=O)NC1C(Oc2nc[nH]c2C(N)=O)OC(COC(C)=O)C(OC(C)=O)C1OC(C)=O (centres undefined) | 133 to 135 |
| CCCC(C)(C)c1nc(CC(=O)O)c(C)o1 | 97 to 98 |
| COc1cccc2c(Cl)nc(Cl)nc12 | 155 to 157 |
| COC(=O)c1cc([N+](=O)[O-])c(C(F)(F)F)cc1NC(C)=O | 75 to 80 |
| Cc1c(C)c2c(c(C)c1N)CC(C)(CN1CCC(OCc3ccccc3)CC1)O2 (centres undefined) | 85 to 86 |
| CCOC(=O)N1CCC(c2ccc(N3CC(COC)OC3=O)cc2)CC1 (racemic) | 86 to 88 |
| COCc1nc2c(N)nc3cc(CCC(N)=O)ccc3c2n1CC(C)(C)O | 228 to 230 |
| N#CC(C(=O)c1ccc(Cl)cc1)=C1CCC(C(=O)O)N1 (centres undefined) | 134 to 136 |
| CC(=O)Oc1cc(OCC(OC(C)=O)c2ccc3c(c2)C(C)(C)CCC3(C)C)ccc1C(=O)O (centres undefined) | 88 to 89 |
| COc1ccccc1C(C)(O)c1ccco1 (centres undefined) | 64 to 66 |
| O=C1c2ccccc2S(=O)(=O)N1CSc1nnc(SCCN2CCCCC2)s1 | 100 to 101 |
| CCOC(=O)N1CCN(c2ncc(F)c(SC)n2)CC1 | 110 to 112 |
| Cc1cc(=O)c2ccc(N)cc2s1 | 165 to 169 |

Second part, the compound after the results:

| melting point [°C] | SMILES |
| --- | --- |
| 177 to 180 | COc1ccc(/C=C/C(=O)c2ccc(CC3SC(=O)NC3=O)cc2)cc1 (centres undefined) |
| 125 to 128 | CCCCNC(=O)c1cccc(NC(=O)NS(=O)(=O)c2ccc(C)cc2)c1 |
| 110 to 113 | CCN(CC)CCNS(=O)(=O)c1ccc(Nc2ncnc3ccc(Cl)cc23)cc1 |
| 165 to 170 | COc1ccccc1C1=NNNN1C(c1ccccc1)(c1ccccc1)c1ccccc1 |
| 186 to 188 | Cn1cnnc1Sc1nc(-c2ccc(Cl)cc2)c(CCC(=O)O)o1 |
| 149 to 151 | CCCCCCCCCCCC(=O)Oc1ccc2cc(C(=N)N)ccc2c1 |
| > 260 | NC(=O)c1[nH]c2ccccc2c1-c1ccc(NS(=O)(=O)c2cccc(Cl)c2Cl)cc1 |
| 156 to 157 | CC(C)(C)OC(=O)C(C#N)C(c1cccc2ccccc12)c1cccc2ccccc12 (centres undefined) |
| 81 | NS(=O)(=O)c1ccc(-c2c(-c3ccccc3)noc2COCCS(=O)(=O)CCO)cc1 |
| 149 to 151 | CC(=O)c1ccc2c(c1)CCCN2C(=O)c1ccc(-c2ccc(Cl)cc2)cc1 |
| 150 to 153 | COc1c(Cl)ccc(-c2cc(N)c(Cl)c(C(=O)NOCc3ccc(F)cc3)n2)c1F |
| 109 to 110 | O=C(c1ccc(F)cc1)N(CCCCn1ccnc1)C1=Nc2cccc3cccc1c23 |
| 119 to 120 | Cc1ccc(NC(=O)Cc2ccccc2)cc1 |
| 149 to 151 | O=C(NCCOc1ccc(CC(Oc2ccccc2)C(=O)O)cc1)c1ccc(-c2ccccn2)cc1 (centres undefined) |
| 125 to 130 | O=C(Cc1cc(F)cc(F)c1)NCC(=O)N[C@@H]1C(=O)Nc2ccccc2S[C@@H]1c1ccccc1 |
| 105 to 110 | CN(CCCCNC(=NCCCOc1cccc(CN2CCCCC2)c1)NC#N)CCC(c1ccc(F)cc1)c1ccccn1 (centres undefined) |
| 48 to 59 | c1ccc(CC[C@H]2CN(C3=Nc4ccccc4Sc4ccccc43)CCN2)cc1 |
| 62 to 68 | CC(=O)Nc1ccc(C(=O)OCC=CC(C)Oc2ccc(Oc3cnc4cc(Cl)ccc4n3)cc2)cc1 (centres undefined) |
| 137 to 138 | COc1ccc(Oc2ccc(C#CC(C)N(O)C(N)=O)s2)cc1 (centres undefined) |
| 125 to 130 | CCCCc1oc2ccccc2c1C(=O)NCc1ccc2c(Br)c(OC(Cc3ccccc3)C(=O)O)ccc2c1 (centres undefined) |
| 67 to 68 | CCOC(=O)CCc1oc(-n2ccnc2)nc1-c1ccc(Cl)cc1 |
| 156 to 157 | CCCn1c(=O)c2c(nc(/C=C/c3ccc(OC(=O)c4ccccc4)c(OC)c3)n2C)n(CCC)c1=O |
| 82 to 84 | O=C(Cc1ccc(Cl)cc1)C1(c2ccc(Cl)c(Cl)c2)CCC1 |
| 64 to 66 | O=C(Cn1nnnc1-c1ccc2ccccc2c1)OCCO |
| 129 to 131 | Cc1cccc(C)c1N(CCCC(=O)O)C(=O)CCCN(C(=O)c1ccc(Cl)cc1)c1c(C)cccc1C |

| melting point [°C] | SMILES |
| --- | --- |
| 232 to 233 | CC(C)(C)c1ccc(C(=O)Nc2cn3nc(NCc4cccnc4)ccc3n2)cc1 |
| 215 | CC(=O)Nc1ncc(Cc2ccc(Cl)cc2)c(N)n1 |
| 167 to 169 | O=C1c2ccccc2C(=O)c2c(NCC(O)CCl)ccc(NCC(O)CCl)c21 (centres undefined) |
| 134 to 135 | Cc1oc(-c2ccc3ccccc3c2)nc1COc1ccc(CCCCn2cncn2)cc1 |
| 188 to 191 | Cc1nc(N2CCN(Cc3ccc(F)cc3)C2=O)sc1C(=O)NCc1cocn1 |
| 174 | O=C(c1ccc(Cl)cc1)c1c(Cl)nc2n(c1=O)CCS2 |
| 148 | Cc1cccc2nc(-c3c(F)cccc3F)[nH]c12 |
| 125 to 127 | CN(C)c1ccc(-c2nc(Cl)c(C#N)n2Cc2ccccc2)cc1 |
| 204 to 208 | CCC(O)c1cnc2c(C)c(NC(=O)c3ccc(-c4ccc(F)cc4)cc3)ccc2c1 (centres undefined) |
| 144 to 146 | COc1ccc2c(n1)C1(CO2)C(=O)N(Cc2ccc3c(c2)OCCO3)c2ccccc21 (centres undefined) |
| 263 to 265 | O=c1cc(-c2ccncc2)cc[nH]1 |
| 190 to 192 | COCCN(C)Cc1c(-c2ccc([N+](=O)[O-])cc2)sc2c1c(=O)n(-c1ccc3c(c1)OCO3)c(=O)n2Cc1c(F)cccc1F |
| 86 to 88 | CC(=O)OCc1ccc(Cl)cc1C(O)c1ccccc1 (centres undefined) |
| 180 to 182 | CC(=O)NS(=O)(=O)c1ccc(NC(=O)c2ccccc2SSc2ccccc2C(=O)Nc2ccc(S(=O)(=O)NC(C)=O)cc2)cc1 |
| 134 to 136 | C=CCOC(=O)COc1cccc(NC(=O)NCC(=O)N(CC(=O)OC(C)(C)C)c2ccccc2C(=O)c2ccccc2)c1 |
| 153 to 154 | COc1ccc(-c2c(Cl)c(CNS(=O)(=O)c3ccccc3)nc3sc4c(c23)CCN(Cc2ccccc2)C4)cc1OC |
| 139 to 140 | O=C(CC(=O)c1ccc(C(F)(F)F)cc1[N+](=O)[O-])c1ccc([N+](=O)[O-])cc1 |
| 126 to 128 | NC(=O)N(O)CCNC(=O)c1cccc(Oc2cccc(C(F)(F)F)c2)c1 |
| 216 to 217 | O=C(Nc1ccc2c(c1)CCNO2)c1cc2cc(F)ccc2n1Cc1cccc(F)c1 |
| 157 to 158 | CCn1ncc2c(NCCc3ccccc3)c3ccccc3nc21 |
| 169 to 170 | Cc1ccccc1NC(=O)CN1CC2CCC(C1)N2S(=O)(=O)c1cccc2nsnc12 |
| 116 | NCc1cccc(CNC(=O)C2Cc3ccccc3N2S(=O)(=O)c2ccc(-c3cccc(C(F)(F)F)c3)cc2)c1 (centres undefined) |
| 165 to 166 | CC1(C)CCC(C)(C)c2cc(C(O)CNc3ccc(C(=O)O)c(O)c3)ccc21 (centres undefined) |
| 135 to 138 | COc1ccc(N(CCN2CCC(C(=O)c3ccc(F)cc3)CC2)C(=O)c2ccc(N)cc2)c(OC)c1 |

From a melting point compilation (Tetko et al.; mined from patent text by program, amines drawn as free bases though some values may be those of a salt)
